Assay results reported in patent US20240208954A1, “OXADIAZOLE COMPOUND, PREPARATION METHOD THEREFOR, PHARMACEUTICAL COMPOSITION AND USE THEREOF” (SHANGHAI INSTITUTE OF MATERIA MEDICA, CHINESE ACADEMY OF …, priority 2020, published 2024).
“And” between values parts separate entries of the source, which are not always exact repeats. Identical values can stand only once. “Also recorded” adds a separate entry of the source. Like-named read-outs stand apart in the source and are kept apart here.

Assays:
[1] = tested on: MCD-HFD induced NASH model; experiment: Pharmacological activity test in MCD-HFD induced NASH model; type: in vivo, C57BL/6 mice
Description: Male C57BL/6 mice were fed with MCD-HFD diet to induce the NASH model, and 4 weeks after modeling, the mice were randomly divided into […]: normal diet control group (Control, n=9), model control group (Model, n=10), positive compound BAF312 group (0.3 mg/kg, n=10), low dose group (0.3 mg/kg, n=10), medium dose group (3 mg/kg, n=10), and high dose group (10 mg/kg, n=10), administered by gavage in a volume of 5 mL/kg once a day. The animals were monitored for food intake and body weight during administration; 4 weeks after administration, the mice were sacrificed by dislocation after blood was taken via the posterior ophthalmic plexus, livers and spleens were weighed, part the liver was fixed in 4% paraformaldehyde, and all tissues and serum were stored at −80° C.

[2] = Preliminary evaluation of pharmacokinetics in Beagle dogs; type: in vivo; details: for MRT inf: read-out: MRT0-∞; for Vd: read-out: Vss; for concentration at 0.083 h / concentration at 0.25 h / concentration at 0.5 h / concentration at 1 h / concentration at 2 h / concentration at 3 h / concentration at 4 h / concentration at 6 h / concentration at 8 h: read-out: Plasma drug concentration in Beagle dogs
[3] = high-dose group (10 mg/kg), gavage once a day, 4 weeks
[4] = Beagle dogs, intragastric 3 mg/kg, individual animals 4-6, listed as DC411151
[5] = Beagle dogs, intravenous 0.5 mg/kg, individual animals 1-3, listed as DC411151, 0.5 mg/kg
[6] = Beagle, dog, plasma, po, 3 mg/kg, Beagle dogs, intragastric 3 mg/kg, individual animals 4-6
[7] = Beagle, dog, plasma, po, 3 mg/kg, Beagle dogs, intragastric 3 mg/kg, mean
[8] = beagle, dog, plasma, iv, 0.5 mg/kg, Beagle dogs, intravenous 0.5 mg/kg, individual animals 1-3
[9] = beagle, dog, plasma, iv, 0.5 mg/kg, Beagle dogs, intravenous 0.5 mg/kg, mean
[10] = dog, in vivo, Beagle dogs, intravenous 0.5 mg/kg, mean

CC(C)Oc1ccc(-c2nc(-c3ccc(CN4CC(C(=O)O)C4)c4ccccc34)no2)cc1C#N.Cl [Compound A1, 1-((4-(5-(3-cyano-4-isopropoxyphenyl)-1,2,4-oxadiazol-3-yl)naphthalen-1-yl)methyl) azetidine-3-carboxylic acid hydrochloric acid]
hepatic lipid accumulation as well as inflammatory infiltration ([1]; FIG. 10 legend: at high/medium/low doses): alleviated
hepatic lipid accumulation and inflammatory infiltration ([1]; H&E-stained liver sections, high-dose (10 mg/kg)): effective in alleviating
body weight ([1]; gavage once a day, 4 weeks): without affecting
TG accumulation in the liver ([1]; high-dose group (10 mg/kg)): significantly alleviating
serum ALT levels [1, 3]: significantly reduced
serum AST levels [1, 3]: significantly reduced
expression levels of fibrosis-related genes (Asma, Tgfb, Col1a1) ([1]; high/medium-dose (10/3 mg/kg)): significantly downregulated; also recorded: downregulates
hydroxyproline levels in the liver ([1]; high/medium-dose (10/3 mg/kg), to different degrees): effective in alleviating; also recorded: alleviated
mRNA expression of liver inflammation-related genes (Tnfa, Il1b, Nlrp3, Ccl2) ([1]; high/medium/low doses (10/3/0.3 mg/kg), to different degrees): significantly downregulated
AUC0-t [2, 4]: 1170 ng·h/mL and 1550 ng·h/mL and 757 ng·h/mL
AUC0-∞ [2, 4]: 1200 ng·h/mL and 1570 ng·h/mL and 765 ng·h/mL
Cmax [2, 4]: 318 ng/mL and 539 ng/mL and 242 ng/mL
MRT0-∞ [2, 4]: 2.58 h and 2.44 h
Tmax [2, 4]: 1 h and 0.25 h and 2 h
t1/2 [2, 4]: 1.32 h and 1.06 h
plasma clearance as share of dog liver blood flow (about 31 mL/min/kg) ([2]; Beagle dogs, intravenous 0.5 mg/kg): 75.2%
AUC0-t [2, 5]: 317 ng·h/mL and 382 ng·h/mL
AUC0-∞ [2, 5]: 319 ng·h/mL and 382 ng·h/mL
CL [2, 5]: 26.1 mL/min/kg and 21.8 mL/min/kg
MRT0-∞ [2, 5]: 0.892 h and 0.952 h
Vss [2, 5]: 1.40 L/kg and 1.24 L/kg
t1/2 [2, 5]: 1.05 h and 0.905 h
half-life [2, 6]: 78 min
MRT inf [2, 6]: 2.93 h
AUC(0-inf) [2, 7]: 1180 ng·h/mL
half-life [2, 7]: 73.8 min
MRT inf [2, 7]: 2.65 h
Tmax ([2]; Beagle, dog, plasma, po, 3 mg/kg, Beagle dogs, intragastric 3 mg/kg, mean, read-out: Tmax): 1.08 h
AUC(0-inf) [2, 8]: 379 ng·h/mL
clearance [2, 8]: 22 mL/min/kg
half-life [2, 8]: 59.8 min
AUC0-t ([2]; beagle, dog, plasma, iv, 0.5 mg/kg, Beagle dogs, intravenous 0.5 mg/kg, individual animals 1-3, read-out: AUC0-t): 375 ng·h/mL
MRT inf [2, 8]: 0.91 h
Vd [2, 8]: 1.2 L/kg
AUC(0-inf) [2, 9]: 360 ng·h/mL
AUC0-t ([2]; beagle, dog, plasma, iv, 0.5 mg/kg, Beagle dogs, intravenous 0.5 mg/kg, mean, read-out: AUC0-t): 358 ng·h/mL
MRT inf [2, 9]: 0.918 h
concentration at 0.083 h ([2]; beagle, dog, plasma, iv, 0.5 mg/kg, intravenous 0.5 mg/kg, 0.083 h, individual animals 1-3): 604 ng/mL
concentration at 0.083 h ([2]; beagle, dog, plasma, iv, 0.5 mg/kg, intravenous 0.5 mg/kg, 0.083 h, mean): 565 ng/mL
concentration at 0.25 h ([2]; beagle, dog, plasma, iv, 0.5 mg/kg, intravenous 0.5 mg/kg, 0.25 h, individual animals 1-3): 237 ng/mL
concentration at 0.25 h ([2]; beagle, dog, plasma, iv, 0.5 mg/kg, intravenous 0.5 mg/kg, 0.25 h, mean): 265 ng/mL
concentration at 0.5 h ([2]; beagle, dog, plasma, iv, 0.5 mg/kg, intravenous 0.5 mg/kg, 0.5 h, individual animals 1-3): 190 ng/mL
concentration at 0.5 h ([2]; beagle, dog, plasma, iv, 0.5 mg/kg, intravenous 0.5 mg/kg, 0.5 h, mean): 168 ng/mL
concentration at 1 h ([2]; beagle, dog, plasma, iv, 0.5 mg/kg, intravenous 0.5 mg/kg, 1 h, individual animals 1-3): 98.8 ng/mL
concentration at 1 h ([2]; beagle, dog, plasma, iv, 0.5 mg/kg, intravenous 0.5 mg/kg, 1 h, mean): 90.9 ng/mL
concentration at 2 h ([2]; beagle, dog, plasma, iv, 0.5 mg/kg, intravenous 0.5 mg/kg, 2 h, individual animals 1-3): 27.5 ng/mL
concentration at 2 h ([2]; beagle, dog, plasma, iv, 0.5 mg/kg, intravenous 0.5 mg/kg, 2 h, mean): 30.2 ng/mL
concentration at 3 h ([2]; beagle, dog, plasma, iv, 0.5 mg/kg, intravenous 0.5 mg/kg, 3 h, individual animals 1-3): 20.4 ng/mL
concentration at 3 h ([2]; beagle, dog, plasma, iv, 0.5 mg/kg, intravenous 0.5 mg/kg, 3 h, mean): 17.7 ng/mL
concentration at 4 h ([2]; beagle, dog, plasma, iv, 0.5 mg/kg, intravenous 0.5 mg/kg, 4 h, individual animals 1-3): 9.68 ng/mL
concentration at 4 h ([2]; beagle, dog, plasma, iv, 0.5 mg/kg, intravenous 0.5 mg/kg, 4 h, mean): 9.39 ng/mL
concentration at 6 h ([2]; beagle, dog, plasma, iv, 0.5 mg/kg, intravenous 0.5 mg/kg, 6 h, individual animals 1-3): 2.51 ng/mL
concentration at 6 h ([2]; beagle, dog, plasma, iv, 0.5 mg/kg, intravenous 0.5 mg/kg, 6 h, mean): 2.21 ng/mL
concentration at 8 h ([2]; beagle, dog, plasma, iv, 0.5 mg/kg, intravenous 0.5 mg/kg, 8 h, mean): 0.773 ng/mL
concentration at 0.25 h ([2]; beagle, dog, plasma, oral, 3 mg/kg, intragastric 3 mg/kg, 0.25 h, mean): 215 ng/mL
concentration at 0.5 h ([2]; beagle, dog, plasma, oral, 3 mg/kg, intragastric 3 mg/kg, 0.5 h, mean): 262 ng/mL
concentration at 1 h ([2]; beagle, dog, plasma, oral, 3 mg/kg, intragastric 3 mg/kg, 1 h, individual animals 4-6): 333 ng/mL
concentration at 1 h ([2]; beagle, dog, plasma, oral, 3 mg/kg, intragastric 3 mg/kg, 1 h, mean): 281 ng/mL
concentration at 2 h ([2]; beagle, dog, plasma, oral, 3 mg/kg, intragastric 3 mg/kg, 2 h, individual animals 4-6): 365 ng/mL
concentration at 2 h ([2]; beagle, dog, plasma, oral, 3 mg/kg, intragastric 3 mg/kg, 2 h, mean): 291 ng/mL
concentration at 3 h ([2]; beagle, dog, plasma, oral, 3 mg/kg, intragastric 3 mg/kg, 3 h, individual animals 4-6): 212 ng/mL
concentration at 3 h ([2]; beagle, dog, plasma, oral, 3 mg/kg, intragastric 3 mg/kg, 3 h, mean): 208 ng/mL
concentration at 4 h ([2]; beagle, dog, plasma, oral, 3 mg/kg, intragastric 3 mg/kg, 4 h, mean): 111 ng/mL
concentration at 6 h ([2]; beagle, dog, plasma, oral, 3 mg/kg, intragastric 3 mg/kg, 6 h, mean): 59.4 ng/mL
concentration at 8 h ([2]; beagle, dog, plasma, oral, 3 mg/kg, intragastric 3 mg/kg, 8 h, mean): 10.8 ng/mL
Tmax ([2]; beagle, dog, plasma, po, 3 mg/kg, Beagle dogs, 3 mg/kg by gavage, range over animals, read-out: peak time Tmax): 0.25 to 2 h
AUC0-t ([2]; dog, in vivo, po, Beagle dogs, intragastric 3 mg/kg, mean, read-out: AUC0-t): 1160 ng·h/mL
Cmax ([2]; dog, in vivo, po, Beagle dogs, intragastric 3 mg/kg, mean, read-out: Cmax): 366 ng/mL
clearance [2, 10]: 23.3 mL/min/kg
half-life [2, 10]: 59 min
Vd [2, 10]: 1.28 L/kg
bioavailability ([2]; dog, plasma, oral, Beagle dogs, 3 mg/kg by gavage vs 0.5 mg/kg intravenous, read-out: absolute bioavailability): 54%
Plasma drug concentration in Beagle dogs ([2]; intragastric 3 mg/kg, 0.25 h, individual animals 4-6, listed as DC411151): 539 ng/mL and 93.3 ng/mL and 11.2 ng/mL
Plasma drug concentration in Beagle dogs ([2]; intragastric 3 mg/kg, 0.5 h, individual animals 4-6, listed as DC411151): 444 ng/mL and 153 ng/mL and 188 ng/mL
Plasma drug concentration in Beagle dogs ([2]; intragastric 3 mg/kg, 1 h, individual animals 4-6, listed as DC411151): 193 ng/mL and 318 ng/mL
Plasma drug concentration in Beagle dogs ([2]; intragastric 3 mg/kg, 2 h, individual animals 4-6, listed as DC411151): 242 ng/mL and 266 ng/mL
Plasma drug concentration in Beagle dogs ([2]; intragastric 3 mg/kg, 3 h, individual animals 4-6, listed as DC411151): 143 ng/mL and 269 ng/mL
Plasma drug concentration in Beagle dogs ([2]; intragastric 3 mg/kg, 4 h, individual animals 4-6, listed as DC411151): 151 ng/mL and 62.7 ng/mL and 118 ng/mL
Plasma drug concentration in Beagle dogs ([2]; intragastric 3 mg/kg, 6 h, individual animals 4-6, listed as DC411151): 90.3 ng/mL and 24.0 ng/mL and 64.0 ng/mL
Plasma drug concentration in Beagle dogs ([2]; intragastric 3 mg/kg, 8 h, individual animals 4-6, listed as DC411151): 12.0 ng/mL and 4.87 ng/mL and 15.6 ng/mL
Plasma drug concentration in Beagle dogs ([2]; intragastric 3 mg/kg, 24 h, individual animals 4-6): BQL
Plasma drug concentration in Beagle dogs ([2]; intravenous 0.5 mg/kg, 0.083 h, individual animals 1-3, listed as DC411151, 0.5 mg/kg): 554 ng/mL and 537 ng/mL
Plasma drug concentration in Beagle dogs ([2]; intravenous 0.5 mg/kg, 0.25 h, individual animals 1-3, listed as DC411151, 0.5 mg/kg): 219 ng/mL and 340 ng/mL
Plasma drug concentration in Beagle dogs ([2]; intravenous 0.5 mg/kg, 0.5 h, individual animals 1-3, listed as DC411151, 0.5 mg/kg): 138 ng/mL and 176 ng/mL
Plasma drug concentration in Beagle dogs ([2]; intravenous 0.5 mg/kg, 1 h, individual animals 1-3, listed as DC411151, 0.5 mg/kg): 76.9 ng/mL and 97.1 ng/mL
Plasma drug concentration in Beagle dogs ([2]; intravenous 0.5 mg/kg, 2 h, individual animals 1-3, listed as DC411151, 0.5 mg/kg): 27.8 ng/mL and 35.4 ng/mL
Plasma drug concentration in Beagle dogs ([2]; intravenous 0.5 mg/kg, 3 h, individual animals 1-3, listed as DC411151, 0.5 mg/kg): 12.5 ng/mL and 20.3 ng/mL
Plasma drug concentration in Beagle dogs ([2]; intravenous 0.5 mg/kg, 4 h, individual animals 1-3, listed as DC411151, 0.5 mg/kg): 7.88 ng/mL and 10.6 ng/mL
Plasma drug concentration in Beagle dogs ([2]; intravenous 0.5 mg/kg, 6 h, individual animals 1-3, listed as DC411151, 0.5 mg/kg): 1.64 ng/mL and 2.47 ng/mL
Plasma drug concentration in Beagle dogs ([2]; intravenous 0.5 mg/kg, 8 h, individual animals 1-3, listed as DC411151, 0.5 mg/kg): BQL and 1.05 ng/ml and 0.496 ng/ml
